This is an account of results in patent US20110230481A2, “DERIVATIVES OF TETRABROMOBENZIMIDAZOLE, A PROCESS FOR THE PREPARATION THEREOF, A PHARMACEUTICAL COMPOSITION COMPRISING THE SAME, A METHOD OF USING THE SAME, A METHOD FOR MODULATING OR REGULATING SERINE/THREONINE KINASES, AND SERINE/THREONINE KINASES MODULATING AGENT” (SELVITA S.A., priority 2009, published 2011).

Each structure is given as a SMILES string.

The subject of series [1] is human breast adenocarcinoma MCF7 cells. Nature of the series: Growth inhibition test (MTS). Type of series: cell-based. Conditions: MCF-7; 72 hours. As to the method:
(§1) Two thousand cells of human breast adenocarcinoma MCF7 were inoculated into each well of a 96-well microplate (manufactured by Corning Corp.), and using DMEM medium (culture medium) containing 10% fetal calf serum (FCS). The same day, a dimethyl sulfoxide (DMSO) solution of each test compound prepared in a concentration of 10 mmol/L was further diluted with DMSO to the desired concentrations (0.1, 0.5, 1, 2.5, 5 and 10 micromol/L), and the diluted solution was added to each well. The individual wells were further cultured in 5% carbon dioxide at 37° C. for 72 hours. After completion of the culture, 10 μl MTS (3-(4,5-Dimethyl-2-thiazolyl)-5-(carboxymethoxyphenyl)-2-(4-sulfophenyl)-2H-tetrazolium, inner salt assay (CellTiter96® AQueous One Solution Cell Proliferation Assay, Promega) was added to each well, and culturing was performed in 5% carbon dioxide at 37° C. for 2 hours. Using a microplate spectrophotometer (Synergy 2 multi-mode microplate reader (BioTek)), the absorbance of each well was measured at 490 nm. The value for cells not incorporated with a test compound was designated as 100%. By comparing these values with the absorbance difference obtained at the well in which each test compound was added, the cell viability (% viability) after treatment with the test compound was calculated.

Series [2] deals with EGFR(L747-S572del. P573S). Briefly: KINOMEscan Max. Type of series: binding, human. Conditions: 1 μM. The protocol:
(§2) Kinase panel profiling was performed at Ambit Kinomescan (http://www.ambitbio.com/technology/) using the “KINOMEscan™ Max” assay platform, a high-throughput method for screening small molecule compounds against large numbers of human kinases. KINOMEscan™ is based on a competition binding assay that quantitatively measures the ability of a compound to compete with an immobilized, active-site directed ligand. The assay is performed by combining three components: DNA-tagged kinase; immobilized ligand; and a test compound. The ability of the test compound to compete with the immobilized ligand is measured via quantitative PCR of the DNA tag. For a description of Ambit's assay protocol, see Fabian et al. A small molecule-kinase interaction map for clinical kinase inhibitors. Nat. Biotechnol. 23, 329-336 (2005).

The next series relates to EGFR(S572-I759del). Nature of the series: KINOMEscan Max. The format is binding, human. Conditions: 1 μM. As to the method:
as §2

The next series has as its system FLT3(ITD). Nature of the series: KINOMEscan Max. The format is binding, human. Conditions: 1 μM. The protocol: as §2
Another series has as its system ISR1. Nature of the series: KINOMEscan Max. Type of series: binding, human. Conditions: 1 μM. The protocol: as §2
Another series concerns the target PIM1 (Homo sapiens, UniProt P11309). Nature of the series: KINOMEscan Max. The format is binding. Further details: DNA tag (qPCR read-out); purchased Ambit Kinomescan. The protocol: as §2
The next series has as its target PIM2 (Homo sapiens, UniProt Q9P1W9). Nature of the series: KINOMEscan Max. Further details: DNA tag (qPCR read-out); purchased Ambit Kinomescan. Type of series: binding. The protocol: as §2
The test system of the next series is neoplastic cell lines. Nature of the series: MTS cytotoxicity, panel of cancer cell lines. The format is cell-based, human. Conditions: majority of the tested cancer cell lines; read-out: general cytotoxic activity (compound concentration that results in death of 50% of the cell). As to the method:
as §1, with “Ten” for “Two”, “chronic myelocytic leukemia K562” for “breast adenocarcinoma MCF7”, “Corp.)” for “Corp.), and”, “Iscove's MDM” for “DMEM”
as §1, with “prostate” for “breast”, “PC3” for “MCF7”, “F12K (Ham's F12:[…] 1:1)” for “DMEM”, “The same day, a dimethyl sulfoxide (DMSO) solution of each test compound prepared in a concentration of 10 mmol/L was further diluted with DMSO to the desired concentrations (0.1, 0.5, 1, 2.5, 5 and 10 micromol/L), and the diluted solution was added to each well. The individual wells were further cultured in 5% carbon dioxide at 37° C. for 72 hours.” left out
as §1, with “prostate carcinoma DU145” for “breast adenocarcinoma MCF7”, “The same day, a dimethyl sulfoxide (DMSO) solution of each test compound prepared in a concentration of 10 mmol/L was further diluted with DMSO to the desired concentrations (0.1, 0.5, 1, 2.5, 5 and 10 micromol/L), and the diluted solution was added to each well. The individual wells were further cultured in 5% carbon dioxide at 37° C. for 72 hours.” left out, “innersalt” for “inner salt”, “calculated. […]” for “calculated.”

Chain of PIM1 (P11309 whole entry): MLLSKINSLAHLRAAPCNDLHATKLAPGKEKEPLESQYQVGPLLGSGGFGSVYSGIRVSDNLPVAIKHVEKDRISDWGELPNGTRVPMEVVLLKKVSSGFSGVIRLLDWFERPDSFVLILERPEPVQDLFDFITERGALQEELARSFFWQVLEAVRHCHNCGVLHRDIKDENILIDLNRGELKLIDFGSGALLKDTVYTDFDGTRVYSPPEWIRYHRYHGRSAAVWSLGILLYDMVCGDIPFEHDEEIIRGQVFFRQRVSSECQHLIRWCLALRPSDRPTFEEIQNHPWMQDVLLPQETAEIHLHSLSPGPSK
Chain of PIM2 (Q9P1W9 whole entry): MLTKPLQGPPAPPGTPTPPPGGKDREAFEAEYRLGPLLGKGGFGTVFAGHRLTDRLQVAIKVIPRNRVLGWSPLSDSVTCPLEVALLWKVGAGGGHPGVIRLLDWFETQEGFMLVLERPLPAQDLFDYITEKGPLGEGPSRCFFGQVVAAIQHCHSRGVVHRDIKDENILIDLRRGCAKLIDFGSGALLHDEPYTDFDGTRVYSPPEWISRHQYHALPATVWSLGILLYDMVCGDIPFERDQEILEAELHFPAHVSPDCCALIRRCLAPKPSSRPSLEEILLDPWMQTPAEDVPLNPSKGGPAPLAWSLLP

Take `NCCCNc1nc2c(Br)c(Br)c(Br)c(Br)c2[nH]1` [Compound 11, N-(3-aminopropyl)-4,5,6,7-tetrabromo-1H-benzo[d]imidazol-2-amine]: in series [1], the “Cytotoxicity in MTS assay (ED50)” value was determined as 5.34 µM. Moreover, the “% binding” value in series [2] was determined as 86%; in the series on EGFR(S572-I759del), 99%; with FLT3(ITD), 35%; in the series with ISR1, 81%. Besides, the remaining binding at 1 µM on PIM1 came to 4%; on PIM2, 0.85%.

As for `Brc1c(Br)c(Br)c2[nH]c(NCCN3CCOCC3)nc2c1Br` [Compound 16, 4,5,6,7-tetrabromo-N-(2-morpholinoethyl)-1H-benzo[d]imidazol-2-amine], the “Cytotoxicity in MTS assay (ED50)” value in series [1] is over 10 µM.

In the case of `CN1CCN(c2nc3c(Br)c(Br)c(Br)c(Br)c3[nH]2)CC1` [Compound 21, 4,5,6,7-tetrabromo-2-(4-methylpiperazin-1-yl)-1H-benzo[d]imidazole], the “Cytotoxicity in MTS assay (ED50)” value in series [1] was over 10 µM.

With `Brc1c(Br)c(Br)c2c(Br)n[nH]c2c1Br` [Compound K64, reference compound], in the series on neoplastic cell lines, the EC50 was over 10 µM.

In the case of `CN(C)c1nc2c(Br)c(Br)c(Br)c(Br)c2n1CC(=O)O` [Compound K66, reference compound], the EC50 with neoplastic cell lines was over 10 µM.

For the compound `CN(C)c1nc2c(Br)c(Br)c(Br)c(Br)c2[nH]1` [DMAT, reference compound], the “Solubility [mM] in phosphate buffer pH 7.4” value was under 0.01 mM. The “Cytotoxicity in MTS assay (ED50)” value in series [1] was over 10 µM. For the same compound, the EC50 in the series with neoplastic cell lines was over 10 µM.

Consider `Brc1c(Br)c(Br)c2[nH]nnc2c1Br` [TBB, reference compound], for which the EC50 in the series on neoplastic cell lines is over 10 µM.

Regarding `Brc1c(Br)c(Br)c2[nH]cnc2c1Br` [TBI, reference compound], the EC50 in the series on neoplastic cell lines was over 10 µM.
